{"source": "patent US10226530B2", "about": "“Methods for treating and/or limiting development of diabetes” (Biocrine AB, priority 2011, dated 2019)", "key": {"[1]": {"system": "CaV1.2", "experiment": "immunoblot of CaV1.2 subunit in RINm5F cell homogenates", "type": "cell-based, rat", "details": "overnight ApoCIII; P>0.05", "experimental": "(§1) Islets of Langerhans were isolated from adult male and female mice and dispersed into single ([…]. RINm5F cells at about 70% confluency were trypsinized. The resultant suspension of cells was seeded into Petri dishes or 12-well plates. The cells were cultivated in RPMI 1640 medium supplemented with 10% fetal bovine serum, 2 mM L-glutamine, and 100 U/100 […] penicillin/streptomycin (Invitrogen, Carlsbad, Calif.) and maintained at 37° C. in a humidified 5% CO2 incubator. They were grown overnight and then subjected to siRNA transfection. For patch-clamp analysis, cells underwent overnight treatment with ApoCIII, the PKA inhibitor H-89 (Calbiochem, La Jolla, Calif.), the PKC inhibitor calphostin C (Calbiochem), the Src kinase inhibitor PP2 (Calbiochem) and the CaV1 channel blocker nimodipine (Calbiochem) in RPMI medium at final concentrations of 20 μg/ml, 0.5 μM, 0.1 μM, 0.1 μM and 5 μM, respectively. […]\n(§2) RINm5F cells following different treatments were lysed in a lysis buffer (pH 7.5) consisting of 50 mM HEPES, 150 mM NaCl, 1 mM EGTA, 1 mM EDTA, 10% glycerol, 1% triton X-100, 1 mM PMSF and a protease inhibitor cocktail (Roche Diagnostics, Mannheim, Germany). […] The protein concentration of the resulting samples was determined with Bio-Rad protein assay reagent (Bio-Rad, Hercules, Calif.). […]"}, "[2]": {"system": "β cell CaV channels", "details": "mouse islet β cell; Juntti-Berggren et al., 2004; cited from earlier work"}, "[3]": {"system": "β cell CaV channels", "experiment": "perforated whole-cell patch-clamp of Ca2+ currents in RINm5F cells", "type": "cell-based, rat", "experimental": "(§3) Islets of Langerhans were isolated from adult male and female mice and dispersed into single ([…]. RINm5F cells at about 70% confluency were trypsinized. The resultant suspension of cells was seeded into Petri dishes or 12-well plates. The cells were cultivated in RPMI 1640 medium supplemented with 10% fetal bovine serum, 2 mM L-glutamine, and 100 U/100 […] penicillin/streptomycin (Invitrogen, Carlsbad, Calif.) and maintained at 37° C. in a humidified 5% CO2 incubator. They were grown overnight and then subjected to siRNA transfection. For patch-clamp analysis, cells underwent overnight treatment with ApoCIII, the PKA inhibitor H-89 (Calbiochem, La Jolla, Calif.), the PKC inhibitor calphostin C (Calbiochem), the Src kinase inhibitor PP2 (Calbiochem) and the CaV1 channel blocker nimodipine (Calbiochem) in RPMI medium at final concentrations of 20 μg/ml, 0.5 μM, 0.1 μM, 0.1 μM and 5 μM, respectively. ApoCIII was dissolved in 0.1% triflouroacetic acid (TFA) to make a stock solution of 1 mg/ml, whereas H-89, calphostin C, PP2 and nimodipine were dissolved in dimethyl sulfoxide (DMSO) to form stock solutions of 5 mM, 1 mM, 1 mM and 10 mM, respectively. 0.002% TFA and/or 0.03% DMSO were used as vehicle controls.\nTwo pairs of 21-mer siRNA duplexes targeting the rat β1 integrin (β1 integrin siRNA #1, ID127971 and β1 integrin siRNA #2, ID127972) were designed and chemically synthesized by Applied Biosystems/Ambion (Austin, Tex.). Their sequences were subjected to BLAST search to ensure their specificity. Silencer® Select Negative Control siRNA (4390843), not targeting any gene product, and Silencer® Select GAPDH Positive Control siRNA (4390849), efficiently silencing GAPDH in human, mouse, and rat cells, were purchased from Applied Biosystems/Ambion (Austin, Tex.). RINm5F cells were reversely transfected with Lipofectamine™ RNAiMAX™. Briefly, negative control siRNA, β1 integrin siRNA #1 or β1 integrin siRNA #2 was mixed with Lipofectamine™ RNAiMAX™ followed by 20-min incubation at room temperature. Subsequently, cells were added to the siRNA/Lipofectamine™ RNAiMAX mixtures followed by gentle agitation and kept at 37° C. in a humidified 5% CO2 incubator. After 72 h, the transfected cells were grown to about 70% confluency and subjected to immunoblot assay or different treatments.\n(§4) Mouse islet cells and RINm5F cells following different treatments were subjected to single channel and whole-cell patch-clamp measurements. Cell-attached and perforated whole-cell patch-clamp configurations were employed. Electrodes were made from borosilicate glass capillaries, fire-polished and coated with Sylgard close to their tips. Some of them were filled with a solution containing (in mM) 110 BaCl2, 10 TEA-Cl, and 5 HEPES (pH 7.4 with Ba(OH)2) for single channel measurements. Others were filled with a solution composed of (in mM) 76 Cs2SO4, 1 MgCl2, 10 KCl, 10 NaCl, and 5 HEPES (pH 7.35 with CsOH), as well as amphotericin B (0.24 mg/ml) for whole-cell current recordings. Electrode resistance ranged between 4 and 6 MΩ when they were filled with electrode solutions and immersed in bath solutions. The electrode offset potential was corrected in bath solutions prior to gigaseal formation. Single-channel recordings were performed with cells bathed in a depolarizing external recording solution, containing (in mM) 125 KCl, 30 KOH, 10 EGTA, 2 CaCl2, 1 MgCl2, and 5 HEPES-KOH (pH 7.15). This solution was used to bring the intracellular potential to 0 mV. For perforated whole-cell current measurements, the cells were bathed in a solution containing (in mM) 138 NaCl, 5.6 KCl, 1.2 MgCl2, 10 CaCl2, 5 HEPES (pH 7.4). Single channel and whole-cell currents were recorded with an Axopatch 200B amplifier (Molecular Devices, Foster City, Calif.) and an EPC-9 patch clamp amplifier (HEKA Elektronik, Lambrecht/Pfalz, Germany), respectively, at room temperature (about 22° C.). […]"}, "[4]": {"system": "CaV1 channels", "experiment": "cell-attached single channel patch-clamp of unitary CaV1 channel currents in mouse islet β cells", "type": "cell-based", "experimental": "as §3\nas §4, with “For perforated whole-cell current measurements, the cells were bathed in a solution containing (in mM) 138 NaCl, 5.6 KCl, 1.2 MgCl2, 10 CaCl2, 5 HEPES (pH 7.4).” left out"}, "[5]": {"system": "CaV1 channels", "experiment": "cell-attached single channel patch-clamp of unitary CaV1 channel currents in RINm5F cells", "type": "cell-based, rat", "details": "ApoCIII 20 μg/ml overnight versus vehicle solution", "experimental": "as §3\nas §4, with “For perforated whole-cell current measurements, the cells were bathed in a solution containing (in mM) 138 NaCl, 5.6 KCl, 1.2 MgCl2, 10 CaCl2, 5 HEPES (pH 7.4).” left out"}, "[6]": {"system": "CaV1.3", "experiment": "immunoblot of CaV1.3 subunit in RINm5F cell homogenates", "type": "cell-based, rat", "details": "overnight ApoCIII; P>0.05", "experimental": "as §1, §2"}, "[7]": {"details": "ApoCIII 20 μg/ml overnight versus control vehicle"}, "[8]": {"details": "H-89 0.5 μM, ApoCIII 20 μg/ml, overnight"}}, "note": "“Also recorded” adds a separate entry of the source."}
{"compound": "apolipoprotein CIII [ApoCIII]", "values": [{"measurement": "relative abundance of CaV1.2 subunits, ApoCIII incubation versus vehicle incubation", "setting": "[1]", "value": "no significant difference"}, {"measurement": "whole-cell Ca2+ currents after ApoCIII incubation", "setting": "[2]", "value": "significantly enhances"}, {"measurement": "density of whole-cell Ca2+ currents, ApoCIII group versus control group", "setting": "[3]; no voltage range printed, H-89/PP2 experiment", "value": "Significantly higher"}, {"measurement": "Ca2+ current density, NC siRNA/apoCIII versus NC siRNA/Control", "setting": "[3]; voltage range 10-40 mV, negative control siRNA-transfected cells", "value": "significant increase"}, {"measurement": "whole-cell Ca2+ current density, ApoCIII-treated cells versus vehicle control cells", "setting": "[3]; voltage range 10 to 50 mV, ApoCIII 20 μg/ml overnight", "value": "significantly higher; also recorded: increased significantly; also recorded: significantly elevated; also recorded: significantly increased"}, {"measurement": "whole-cell Ca2+ current density, ApoCIII group versus control group", "setting": "[3]; voltage range from 10 to 30 mV, ApoCIII 20 μg/ml overnight", "value": "significantly higher"}, {"measurement": "mean closed time of unitary CaV1 channels", "setting": "[4]; ApoCIII 20 μg/ml overnight versus control patches", "value": "significantly shorter"}, {"measurement": "mean open time of unitary CaV1 channels", "setting": "[4]; [7]", "value": "significantly greater"}, {"measurement": "open probability of unitary CaV1 channels", "setting": "[4]; [7]", "value": "significantly greater"}, {"measurement": "average number of unitary CaV1 channels", "setting": "[4]; ApoCIII 20 μg/ml overnight versus control vehicle, plasma membrane patches", "value": "significantly greater"}, {"measurement": "channel number of CaV1 channels", "setting": "[5]", "value": "significantly increased"}, {"measurement": "mean closed time of CaV1 channels", "setting": "[5]", "value": "shortened"}, {"measurement": "mean open time of CaV1 channels", "setting": "[5]", "value": "prolonged"}, {"measurement": "open probability of CaV1 channels", "setting": "[5]", "value": "elevated"}, {"measurement": "relative abundance of CaV1.3 subunits, ApoCIII incubation versus vehicle incubation", "setting": "[6]", "value": "no significant difference"}]}
{"compound": "calphostin C [CalpC]", "values": [{"measurement": "Ca2+ current density, ApoCIII/CalpC-cotreated cells versus ApoCIII-treated cells", "setting": "[3]; calphostin C 0.1 μM", "value": "no difference"}, {"measurement": "Ca2+ current density, CalpC-treated cells versus control vehicle", "setting": "[3]; calphostin C 0.1 μM, absence of ApoCIII", "value": "similar"}, {"measurement": "mean Ca2+ current density, ApoCIII/CalpC versus vehicle control cells", "setting": "[3]; voltage range from 20 to 50 mV, calphostin C 0.1 μM", "value": "increased significantly"}]}
{"compound": "CC(C)(C)n1nc(-c2ccc(Cl)cc2)c2c(N)ncnc21", "note": "[PP2]", "values": [{"measurement": "difference in Ca2+ current density to vehicle: ApoCIII/PP2-cotreated cells compared with that of ApoCIII-treated cells", "setting": "[3]; PP2 0.1 μM", "value": "less prominent"}, {"measurement": "Ca2+ current densities, cells incubated with PP2 versus vehicle-treated cells", "setting": "[3]; PP2 0.1 μM, absence of ApoCIII", "value": "similar"}, {"measurement": "Ca2+ currents, cotreatment of ApoCIII and PP2 versus vehicle control cells", "setting": "[3]; voltage range 20-40 mV, PP2 0.1 μM", "value": "significantly larger"}]}
{"compound": "O=S(=O)(NCCNC/C=C/c1ccc(Br)cc1)c1cccc2cnccc12", "note": "[H-89]", "values": [{"measurement": "Ca2+ current density, cotreatment of ApoCIII and H-89 versus cells treated with ApoCIII", "setting": "[3]; [8]", "value": "did not significantly differ"}, {"measurement": "Ca2+ current density, cotreatment of ApoCIII and H-89 versus control cells", "setting": "[3]; [8]", "value": "did not significantly differ"}, {"measurement": "Ca2+ current densities under basal conditions, H-89 versus control", "setting": "[3]; H-89 0.5 μM, absence of ApoCIII", "value": "did not significantly influence"}]}
